Reference: patent US20200069775A1, “BRAIN OSTEOCALCIN RECEPTOR AND COGNITIVE DISORDERS” (The Trustees of Columbia University in the City of New York, priority 2017, published 2020)

Columns and labels:
[1] = Ex vivo dual perfusion of the mouse placenta (maternal-fetal transport); format: in vitro ADME
Description: Maternal-fetal transport of osteocalcin was monitored using ex vivo dual perfusion of the mouse placenta (Goeden & Bonnin, 2013, Nature Protocols 8:66-74). Osteocalcin (300 ng/ml) was injected on the maternal side through the uterine artery in placentas obtained from WT mice at E14.5, E15.5, and E18.5 of pregnancy (n=3 independent perfusions per age). Osteocalcin transport through the placenta was analyzed by measuring the concentration of osteocalcin present in fetal eluates obtained through the umbilical vein, each time point (1-9) corresponding to a 10 minute collection period (at 5 μl/min). Collection time points (from 10 to 30 min of perfusion) were obtained during materal fluid infusion; time points 4-6 (from 30 to 60 min of perfusion) were obtained during osteocalcin infusion into the maternal uterine artery, whereas for time points 7-9 (from 60 to 90 min of perfusion, respectively) the maternal uterine artery was infused with maternal fluid alone.
Any influence of maternal osteocalcin on fetal brain development requires that this hormone cross the placenta. This was investigated through an ex vivo dual perfusion system that monitors the transport of substances across the mouse placenta (Bonnin et al., 2011, Nature 472:347-350; Goeden and Bonnin, […], Nature Protocols 8:66-74).

[2] = system: Osteocalcin−/− embryos and adult offspring of Osteocalcin−/− mothers; experiment: Osteocalcin injections in pregnant Osteocalcin−/− mothers, analysis of offspring; format: in vivo, mouse
Description: Osteocalcin−/−, Gprc6a−/−, Osteocalcin-mCherry, and Osteocalcin foxed mice have been previously described (Ducy et al., 1996, Nature 382:448-452; Oury et al., 2011, Cell 144:796-809). Mouse genotypes were determined by PCR. For all experiments, controls were littermate female WT, Cre-expressing, or flox/flox. All mice were maintained on a pure 129-Sv genetic background except for the inducible deletion Osteocalcin model (mix background: 25% C57/BL6 and 75% 129sv). For inducible gene deletion mice, tamoxifen was prepared in corn oil and injected intraperitoneally (IP) (1 mg/20g of body weight) over one week. For osteocalcin delivery to pregnant mice, IP injections (240 ng/day) were performed as soon as a plug was present daily until delivery (E0.5-E18.5). For osteocalcin or leptin infusion in adult Osteocalcin−/− or ob/ob mice, pumps (Alzet micro-osmotic pump, Model 1002) delivering osteocalcin (300 ng/hr), leptin (50 ng/hr), or vehicle were surgically installed subcutaneously in the backs of 3-month old mice. For the postnatal rescue of cognitive functions in Osteocalcin−/− mice, osteocalcin (10 ng/hour) or vehicle were delivered intrasubventricularly (icv) as previously described (Ducy et al., 2000, Cell 100:197-207). Leptin and osteocalcin content in sera and tissues were determined by ELISA.
Cresyl violet staining to visualize brain morphology was carried out by incubating 20 μm cryosections defatted with 1:1 chloroform:ethanol in cresyl violet acetate (1 g/L) overnight. The stain was differentiated using ethanol and xylene and mounted using DPX mounting medium for histology (Sigma).
To assess apoptosis in WT and Osteocalcin−/− brains, 20 μm cryostat sections were processed using theAPOPTAG® Fluorescein Direct In Situ Apoptosis Detection Kit (Millipore) according to manufacturer's protocol. Images were obtained using Leica DM 4000B, and Image J was used to quantify cell number and intensity of staining.
For western blotting, frozen hippocampi from E18.5 embryos were lysed and homogenized in 250 μl tissue lysis buffer (25 mM Tris HCl 7.5; 100 mM NaF; 10 mM Na4P2O7; 10 mmM EDTA; 1% NP 40). Samples were pooled together in threes by genotype to reduce variability. Proteins were transferred to nitrocellulose membranes and blocked with TBST-5% milk prior to overnight incubation with primary antibody in TBST-5% BSA. HRP-coupled secondary antibodies and ECL were used to visualize the signal.
To further evaluate the importance of maternal osteocalcin for the acquisition of spatial learning and memory in adult offspring, pregnant Osteocalcin^−/− mothers from E0.5 to E18.5 were treated with injections, once a day, of osteocalcin (240 ng/day). Osteocalcin was never injected in these females or their pups after delivery. […] Likewise, the number of apoptotic cells was reduced and the number of NeuN positive cells was increased compared to Osteocalcin^−/− embryos originating from Osteocalcin^−/− mothers that were not injected (FIG. 7I-J).

WT 2-month old mice = experiment: ICV delivery in WT adult mice, D/LT and EPMT; format: in vivo, mouse; conditions: ICV 3 or 10 ng/hour, one month
Description: Each mouse was allowed to explore the apparatus for 5 min. Global activity was assessed by measuring the number of entries […] (David et al, 2009, Neuron 62:479-493). Anxiety was assessed by comparing the time spent in the open arms.
The test was performed in a quiet, darkened room. Mice were individually housed in cages containing a handful of bedding from their home cage and acclimated to the room at least 1 h before the test. Naive mice were placed individually in the testing chamber in the dark compartment. The test was 5 min in duration, and time spent and number of entries in light compartments were recorded a highly trained observer, blind to the genotype of the mice.
To determine if osteocalcin is sufficient to improve cognitive function in adult mice, WT 2-month old mice were implanted with ICV pumps delivering vehicle (PBS), or 3, 10, or 30 ng/hr recombinant uncarboxylated full-length mouse osteocalcin for a period of one month. After one month of infusion, animals were subjected to behavioral testing.

[3] = system: CREB phosphorylation in the hippocampus; experiment: Stereotactic injection into hippocampus, pCREB and PKA immunofluorescence; format: in vivo, mouse; conditions: 16 h post injection
Source text: The resulting effects on animal behavior of direct recombinant uncarboxylated osteocalcin delivery raise the question of the molecular mechanism of action of osteocalcin in the brain. Given that osteocalcin acts through a G-protein coupled receptor pathway in other tissues, e.g., pancreas and testis, the phosphorylated CREB levels in the hippocampi of Ocn−/− and WT animals was checked. […] The hippocampus is essential for optimal spatial learning and memory in rodents. It was then asked whether the acute stereotactic injection of 10 ng of recombinant uncarboxylated osteocalcin directly into the hippocampus of WT animals would affect pCREB levels.

[4] = Osteocalcin−/− embryos, injected vs not injected Osteocalcin−/− mothers
[5] = mothers injected 240 ng/day once a day E0.5 to E18.5

Substance: osteocalcin: Recombinant osteocalcin bacterially produced, cleaved from the GST subunit; completely undercarboxylated at all three sites; full-length mouse osteocalcin (YLGASVPSPDPLEPTREQCELNPACDELSDQYGLKTAYKRIYGITI)
- transport across the placenta ([1]; day 14.5 of gestation, 300 ng/ml through uterine artery): begins to cross the placenta
- transplacental transfer to the fetal circulation ([1]; day 15.5 or 18.5 of gestation): larger transplacental transfer
- Caspase-3 cleaved protein level in the hippocampus (Western blot) ([2]; Osteocalcin−/− E18.5 embryos, injected vs not injected mothers): decrease in Caspase-3 cleaved protein level
- number of NeuN positive cells [2, 4]: increased
- number of apoptotic cells [2, 4]: reduced
- number of apoptotic cells ([2]; Osteocalcin−/− embryos, injected vs not injected Osteocalcin−/− mothers, listed as Uncarboxylated osteocalcin): prevent this neuronal apoptosis
- thickness defect in the CA3 and CA4 regions of the hippocampus ([2]; adult Osteocalcin−/− originating from Osteocalcin−/− mothers): rescue of the thickness defect
- cerebral ventricle enlargement (cresyl violet) ([2]; brains of E18.5 Osteocalcin−/− embryos, injected mothers): rescue of the cerebral ventricle enlargement
- anxiety or depression phenotypes of Osteocalcin−/− offspring [2, 5]: did not have any beneficial effect
- deficit in learning and memory of Osteocalcin−/− offspring [2, 5]: rescued over two third of their deficit
- anxiety-like behavior (D/LT and EPMT) (WT 2-month old mice): decrease in anxiety-like behavior
- exploration of the lit compartment and open arms (D/LT, EPM) (WT 2-month old mice): increase in the exploration of the lit compartment and open arms
- pCREB staining ([3]; 10 ng into hippocampus of WT animals, vs PBS hemisphere): pCREB staining was increased
- PKA staining ([3]; 10 ng into hippocampus, injected hemisphere): widespread and dramatic increase in PKA staining
